Columns and labels:
in vivo = experiment: in vivo; design: species or system SD rat; details: rat
Method: The hair of the nine-week old male SD rat's abdomen was removed with a hair clipper and a shaver. […] Also, the microneedle array after the administration was immersed in 75% methanol, and the amount of the collected drug was measured with a HPLC.

[1] = design: species or system SD rat; details: rat, in vivo
Method: Additive: 0.5 w/w sodium carboxymethylcellulose ([…] % hydroxypropylcellulose 1000-5000 mPa·s […] Water: 97.75 w/w % The coater shown in FIG. 5 (the volume of a drug aqueous solution: 4 ml) was used. […] After coating said microneedle array with the solution, the microneedle array was dried at room temperature (20-25° C.) for 60 seconds. The hair of the nine-week old male SD rat's abdomen was removed with a hair clipper and a shaver. The microneedle array of FIG. 7 was pressed onto the rat's skin with a finger, and fixed with tape. After one hour, the microneedle array was removed. In order to evaluate the amount of residual desmopressin acetate (the amount remained on the skin surface and the amount attached to the microneedle array), desmopressin acetate was collected as follows. The skin surface was wiped with Kimwipes® impregnated with ethanol, and the amount of the drug collected from the skin was investigated by measuring the drug in the Kimwipes® with a HPLC. The collected microneedle array was immersed in 75% methanol, and the amount of the collected drug was measured with a HPLC.

**Q.** Which results are given for `NC(=O)CC[C@@H]1NC(=O)[C@H](Cc2ccccc2)NC(=O)[C@H](Cc2ccc(O)cc2)NC(=O)CCSSC[C@@H](C(=O)N2CCC[C@H]2C(=O)N[C@H](CCCN=C(N)N)C(=O)NCC(N)=O)NC(=O)[C@H](CC(N)=O)NC1=O` [desmopressin acetate]?
**A.** AUC (in vivo; male, SD, 4.88 ug): 14.3 ng·h/mL; Skin absorption amount (in vivo): >4.83; Transfer into the blood (change in blood levels, FIG. 8) (in vivo): rapidly transferred in the blood; Amount remained on microneedle array (in vivo; 0.5 h): <0.025; Amount remained on skin surface (in vivo; 0.5 h): <0.025; Needles after 1 hour adhesion C (residual drug on microneedle array) [1]: <0.025 µg; Skin after 1 hour adhesion D (residual drug on skin surface) [1]: <0.025 µg

Source: US10556098B2, “Microneedle array coated with drug composition” (TEIJIN LIMITED, priority 2012, dated 2020)
